In patent publication US20160008366A1, “BTK INHIBITORS FOR THE TREATMENT OF CNS MALIGNANCIES” (Pharmacyclics LLC, priority 2014, published 2016):
Marks after values point to notes of the source that are not given here.

What was measured:
[1] = Adsorption test in human CSF to Nunc CryoTube vials; type: physicochemical; settings: incubated for 1 h on ice, Low and High QC
From the text: These QC samples were kept in Nunc CryoTube vials for one hour. After an hour, each sample was vortex mixed and assayed against freshly prepared calibration standards. The obtained concentrations of the adsorption test QC samples were compared to the nominal values. The samples were considered to have no adsorption to the Nunc CryoTube vials if the mean value of the obtained concentrations was within 20% of the nominal concentration.

[2] = CSF and plasma concentration ratios for ibrutinib and PCI-45227, patient 01-001BF; type: in vivo, human; settings: ibrutinib 560 mg daily; for Kp: human, CSF/plasma, 560 mg daily
[3] = Quantification of PCI-32765 (ibrutinib) and its metabolite PCI-45227 in human cerebrospinal fluid samples of patient 01-001BF (LC-MS/MS); type: in vivo; settings: for observed in CSF samples: patient 01-001BF after 560 mg of ibrutinib daily; for Calculated Concentration in CSF: patient 01-001BF, ibrutinib 560 mg daily
Procedure: Samples were obtained from patient (01-001BF), a person with Waldenstrom's macroglobulinemia with amyloid and Bing-Neel syndrome.
Standards and QC sample preparation and data analysis were carried out using the methods described in Example 1. In brief, all samples and standards were prepared on ice. Internal standard (IS) was prepared by addition of d5-PCI-32765 and d5-PCI-45227 in 0.2% formic acid in 1:9 (v/v) water: ACN (acetonitrile).
A100 μL of either a sample or a standard was transferred into each well of a 96-well plate. To each well was added 20 μL of the internal standard solution. […] Next, the 96-well plate was capped and vortexed thoroughly and then centrifuged at 4000 rpm for at least 10 minutes at 4° C.
High performance liquid chromatography (HPLC) (Shimadzu Nexera X2 HPLC system) was coupled with an electrospray ionization triple quadrupole mass spectrometer (AB SCIEX API-6500), and an autosampler (CTC PAL Eksigent). Chromatographic separation was achieved using an XBridge™ Ethylene-Bridged Hybrid (BEH) C18 column, 3.5 μm (2.1×50 mm) (Waters), and a C 18 guard column (2×4 mm) (Phenomenex Security Guard). Mobile phase A was 0.1% formic acid in water and mobile phase B was 100% acetonitrile. In all conditions, the column temperature was at ambient, the autosampler temperature was at 4° C., and the injection volume was 10 μL. The diversion time from HPLC to MS was from 0.5 minutes to 2.5 minutes.
The mass spectrometer (MS) equipped with an ESI source, was operated at a source temperature of 700° C.

[4] = QC samples bench-top (ice) stability in human CSF; type: in vitro ADME; settings: nominal 0.500 ng/mL, on ice for 2 hours, n=6
[5] = Short-term storage stability in human CSF at −70±5° C.; type: in vitro ADME; settings: −70±5° C. for at least 7 days, n=6
[6] = cited from earlier work
[7] = QC samples freeze (−70° C.)/thaw (on ice) stability in human CSF; type: in vitro ADME; settings: nominal 0.500 ng/mL, 3 freeze/thaw cycles, n=6
Procedure: QC samples stored at −70° C., which were subjected to 3 freeze/thaw (ice) cycles, were measured against freshly prepared calibration standards.

[8] = Day 1, pre-dose (0 h), BQL = below quantification limit (0.3 ng/mL)

Row | adsorption to Nunc Cryo Tube vials [1] | Kp ([2]; 1 Month, 3 h) | Kp ([2]; Day 1, 2 h) | observed in CSF samples [3] | Calculated Concentration in CSF ([3]; 1 Month, 3 h) | Calculated Concentration in CSF ([3]; Day 1, 2 h) | Calculated Concentration in CSF [3, 8] | Calculated Concentration in CSF ([3]; Day 1, pre-dose (0 h), BQL = below quantification limit (0.3 ng/mL), listed as Ibrutinib) | % CSF/Plasma ([2]; 1 Month, 3 h) | % CSF/Plasma ([2]; Day 1, 2 h) | Bench-top QC Low Concentration, Mean [4] | Bench-top QC Low, % Accuracy [4] | Intra-run QC Low, % Accuracy ([5]; nominal 0.500 ng/mL) | Intra-run QC Low, Mean ([5]; nominal 0.500 ng/mL) | Intra-run QC Mid, % Accuracy ([5]; nominal 5.00 ng/mL) | Intra-run QC Mid, Mean ([5]; nominal 5.00 ng/mL) | F/T3 (−70° C.) Low QC, % Accuracy [7] | F/T3 (−70° C.) Low QC, Mean [7] | Structure (SMILES) | reported percentage of unbound of the compounds in plasma [6]
1 | no adsorption | 0.035 | 0.03 | observed | 7.19 ng/mL | 15.0 ng/mL | BQL | BQL^a |  |  |  |  |  |  |  |  |  |  | C=CC(=O)N1CCC[C@@H](n2nc(-c3ccc(Oc4ccccc4)cc3)c3c(N)ncnc32)C1 [PCI-32765, (R)-1-(3-(4-amino-3-(4-phenoxyphenyl)-1H-pyrazolo[3,4-d]pyrimidin-1-yl)piperidin-1-yl)prop-2-en-1-one] | 
2 | no adsorption |  |  | observed | 15.4 ng/mL | 14.7 ng/mL | BQL and BQL^a |  | 8.5% | 6.2% | 0.458 ng/mL | 91.5% | 99.4% | 0.497 ng/mL | 87.8% | 4.39 ng/mL | 97.2% | 0.486 ng/mL | Nc1ncnc2c1c(-c1ccc(Oc3ccccc3)cc1)nn2[C@@H]1CCCN(C(=O)C(O)CO)C1 (stereo partly drawn) [PCI-45227] | 9%
